Literature values as cited in patent US20070036859A1, “Sustained release antihistamine and decongestant composition” (priority 2005, published 2007).

Details: conventional tablets, oral

With `CCOC(=O)N1CCC(=C2c3ccc(Cl)cc3CCc3cccnc32)CC1` [loratadine] as the molecule, how does the “duration of antihistaminic effect” value read?
Its value is greater than 24 h.

What about the “time to begin of antihistaminic effect after ingestion” value of the same molecule?
The value was “one to three”.
